Reference: patent US5637501A, “Apparatus for automatically testing the antibiotic sensitivity of a paraffinophilic microorganism” (Infectech, Inc., priority 1995, dated 1997)
Counter-ions that a name gives are not always drawn. Like-named read-outs stand apart in the source and are kept apart here.

Tested on: MAI
Test: antibiotic sensitivity (MIC) of MAI strains, paraffin slide culture and microliter assays
Type: cell-based, Mycobacterium avium-intracellulare
Parameters: key: NG: No Growth
Source text: The present invention has met the above-described need. In one embodiment, it provides a method of automatically testing the sensitivity of a paraffinophilic microorganism to different antimicrobial agents, such as antibiotics, and concentrations thereof, by providing a plurality of receptacles, each containing an amount of liquid medium, an antimicrobial agent to be tested and the microorganism to be tested. In each of the receptacles is placed a slide containing a paraffin source. The receptacles are then incubated, after which a light scatter sensing means automatically and sequentially monitors the extent of microorganism growth on the slides. The extent of colony growth is employed to determine which antimicrobial agent in which concentration is effective to resist growth of the microorganism. A preferred light scatter sensing means is a nephelometer.
Referring specifically to FIG. 1, there is shown a preferred embodiment of the present invention usable in a method of automatically testing the sensitivity of a pure culture of a microorganism to different antimicrobial agents and concentrations thereof. In this embodiment, a microorganism, which may have been previously speciated as by the technique taught in U.S. Pat. No. 5,153, 119, has been introduced into a plurality of receptacles, each containing an amount of liquid medium and antimicrobial agent to be tested. A paraffin slide is introduced into each of the receptacles which are subsequently incubated. The receptacles 2-22 (even numbers only) are fixedly secured to an elongated, substantially rigid movable carrier member 26, such that the receptacles 2-22 will be translated therewith in the direction shown by the arrow A. The carrier member 26 may be made of any suitable material, such as aluminum, steel, stainless steel, or resinous plastic, for example. The receptacles 2-22, respectively, contain slides 32-52 (even numbers only). The slides 32-52 are fixedly secured, respectively, within receptacles 2-22 which may test tubes. The slides 32-52 are generally oriented so as to have their elongated direction aligned with the direction of travel of the carrier 26. As the carrier moves in the direction of arrow A, the slides 2-22 will sequentially be positioned in operative relationship to the light scatter sensing means which consists of light source 60, which directs a light beam toward light detector 62. In the preferred embodiment, a beam of visible light from light source 60 will impinge upon slide 32, with the growth of the microorganism thereon producing a corresponding scatter of light which is received by the light receiving sensor 62 and converts the received light into an appropriate output electrical signal which will be delivered to computer means 64. The computer means 64, in turn, provides output to output means 66, which may conveniently be a display, such as a cathode ray tube or a hard copy printer, for example. The degree of light scatter will be related to the extent of microorganism growth with light scatter increasing as growth on the slide increases.
The computer means 64 may be a general purpose digital microprocessor. It may be programmed in a manner readily known to those skilled in the art to sequentially compare the light scatter value of each slide 32-52 with that of a control slide and to provide an output to output means 66, such as a visual screen display or hard copy, with or without prior enhancement, which indicates the difference between the control slide and the specific slides containing the same pure culture of a paraffinophilic microorganism, but exposed to different concentrations of different or the same antimicrobial agents, such an antibiotics. In this manner, there is provided the minimal concentration level of a specific antimicrobial agent that must be used to control growth of the microorganism. Also, the minimum bactericidal concentration may be determined. […]

O=C(O)c1cn(C2CC2)c2cc(N3CCNCC3)c(F)cc2c1=O [ciprofloxacin-HCl]
Days to Confluency (Exp. Series II, strain 1): 9 days | Days to Confluency (Exp. Series II, strain 2): 9 days | Days to Confluency (Exp. Series II, strain 3): NG | MIC (Exp. Series II, strain 3): NG | Days to Confluency (Exp. Series II, strain 4): 10 days | Days to Confluency (Exp. Series II, strain 5): 9 days | Days to Confluency (Exp. Series II, strain 6): 10 days | Days to Confluency (Exp. Series II, strain 7): 10 days | Days to Confluency (Exp. Series II, strain 8): 9 days | Days to Confluency (Exp. Series II, strain 9): 10 days | Days to Confluency (Exp. Series II, strain 10): 7 days | Days to Confluency (Exp. Series II, strain 11): 7 days | Days to Confluency (Exp. Series II, strain 12): 7 days | Days to Confluency (Exp. Series II, strain 13): 8 days | Days to Confluency (Exp. Series II, strain 14): 7 days | Days to Confluency (Exp. Series II, strain 15): 7 days | Days to Confluency (Exp. Series II, strain 16): 7 days | Days to Confluency (Exp. Series III, strain 1): 7 days | Days to Confluency (Exp. Series III, strain 2): 8 days | Days to Confluency (Exp. Series III, strain 3): 8 days | Days to Confluency (Exp. Series III, strain 4): 9 days | Days to Confluency (Exp. Series III, strain 5): 8 days | Days to Confluency (Exp. Series III, strain 6): 9 days | Days to Confluency (Exp. Series III, strain 7): 8 days | Days to Confluency (Exp. Series III, strain 8): 8 days | Days to Confluency (Exp. Series III, strain 9): 8 days | Days to Confluency (Exp. Series III, strain 10): 6 days | Days to Confluency (Exp. Series III, strain 11): 6 days | Days to Confluency (Exp. Series III, strain 12): 6 days | Days to Confluency (Exp. Series III, strain 13): 7 days | Days to Confluency (Exp. Series III, strain 14): 7 days | Days to Confluency (Exp. Series III, strain 15): 7 days | Days to Confluency (Exp. Series III, strain 16): 6 days | MIC (Mycobacterium avium-intracellulare, Exp. Series II, strain 1, read-out: MIC): 3.6 µg/mL | MIC (Mycobacterium avium-intracellulare, Exp. Series II, strain 2, read-out: MIC): 18.2 µg/mL | MIC (Mycobacterium avium-intracellulare, Exp. Series II, strain 4, read-out: MIC): 3.6 µg/mL | MIC (Mycobacterium avium-intracellulare, Exp. Series II, strain 5, read-out: MIC): 7.3 µg/mL | MIC (Mycobacterium avium-intracellulare, Exp. Series II, strain 6, read-out: MIC): 3.6 µg/mL | MIC (Mycobacterium avium-intracellulare, Exp. Series II, strain 7, read-out: MIC): 3.6 µg/mL | MIC (Mycobacterium avium-intracellulare, Exp. Series II, strain 8, read-out: MIC): 3.6 µg/mL | MIC (Mycobacterium avium-intracellulare, Exp. Series II, strain 9, read-out: MIC): 3.6 µg/mL | MIC (Mycobacterium avium-intracellulare, Exp. Series II, strain 10, read-out: MIC): 14.5 µg/mL | MIC (Mycobacterium avium-intracellulare, Exp. Series II, strain 11, read-out: MIC): 7.3 µg/mL | MIC (Mycobacterium avium-intracellulare, Exp. Series II, strain 12, read-out: MIC): 10.9 µg/mL | MIC (Mycobacterium avium-intracellulare, Exp. Series II, strain 13, read-out: MIC): 18.2 µg/mL | MIC (Mycobacterium avium-intracellulare, Exp. Series II, strain 14, read-out: MIC): 18.2 µg/mL | MIC (Mycobacterium avium-intracellulare, Exp. Series II, strain 15, read-out: MIC): 7.3 µg/mL | MIC (Mycobacterium avium-intracellulare, Exp. Series II, strain 16, read-out: MIC): 7.3 µg/mL | MIC (Mycobacterium avium-intracellulare, Exp. Series III, strain 1, read-out: MIC): 3.6 µg/mL | MIC (Mycobacterium avium-intracellulare, Exp. Series III, strain 2, read-out: MIC): 14.5 µg/mL | MIC (Mycobacterium avium-intracellulare, Exp. Series III, strain 3, read-out: MIC): 3.6 µg/mL | MIC (Mycobacterium avium-intracellulare, Exp. Series III, strain 4, read-out: MIC): 3.6 µg/mL | MIC (Mycobacterium avium-intracellulare, Exp. Series III, strain 5, read-out: MIC): 7.3 µg/mL | MIC (Mycobacterium avium-intracellulare, Exp. Series III, strain 6, read-out: MIC): 7.3 µg/mL | MIC (Mycobacterium avium-intracellulare, Exp. Series III, strain 7, read-out: MIC): 7.3 µg/mL | MIC (Mycobacterium avium-intracellulare, Exp. Series III, strain 8, read-out: MIC): 3.6 µg/mL | MIC (Mycobacterium avium-intracellulare, Exp. Series III, strain 9, read-out: MIC): 3.6 µg/mL | MIC (Mycobacterium avium-intracellulare, Exp. Series III, strain 10, read-out: MIC): 14.5 µg/mL | MIC (Mycobacterium avium-intracellulare, Exp. Series III, strain 11, read-out: MIC): 7.3 µg/mL | MIC (Mycobacterium avium-intracellulare, Exp. Series III, strain 12, read-out: MIC): 7.3 µg/mL | MIC (Mycobacterium avium-intracellulare, Exp. Series III, strain 13, read-out: MIC): > 18.2 µg/mL | MIC (Mycobacterium avium-intracellulare, Exp. Series III, strain 14, read-out: MIC): 14.5 µg/mL | MIC (Mycobacterium avium-intracellulare, Exp. Series III, strain 15, read-out: MIC): 7.3 µg/mL | MIC (Mycobacterium avium-intracellulare, Exp. Series III, strain 16, read-out: MIC): 3.6 µg/mL
